# Laboratory results from PubChem BioAssay (NCI).
# “And” between values parts separate entries of the source, which are not always exact repeats. Equal values may be shown once.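 Values below derive from 48-hour exposures of cells grown in 96-well plates, with endpoints linearly interpolated between the two concentrations bracketing the appropriate inhibition level. Here, GI50 denotes the concentration required for 50% inhibition of growth. TGI denotes the concentration required for complete inhibition of growth.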
# Assays:
# Test in all cases: NCI tumour cell line growth inhibition, 48 h
# [1] = system: A498 renal
# [2] = system: A549 NSCLC
# [3] = system: CAKI-1 renal
# [4] = system: CCRF-CEM leukemia
# [5] = system: COLO 205 colon
# [6] = system: DLD-1 colon
# [7] = system: DMS 114 small cell lung
# [8] = system: DMS 273 small cell lung
# [9] = system: EKVX NSCLC
# [10] = system: HCC-2998 colon
# [11] = system: HCT-116 colon
# [12] = system: HCT-15 colon
# [13] = system: HL-60(TB) leukemia
# [14] = system: HOP-18 NSCLC
# [15] = system: HOP-62 NSCLC
# [16] = system: HOP-92 NSCLC
# [17] = system: HT29 colon
# [18] = system: IGROV1 ovarian
# [19] = system: K-562 leukemia
# [20] = system: KM12 colon
# [21] = system: KM20L2 colon
# [22] = system: LOX IMVI melanoma
# [23] = system: M19-MEL melanoma
# [24] = system: MALME-3M melanoma
# [25] = system: MCF7 breast
# [26] = system: MOLT-4 leukemia
# [27] = system: NCI-H226 lung
# [28] = system: NCI-H23 lung
# [29] = system: NCI-H460 lung
# [30] = system: NCI-H522 lung
# [31] = system: NCI/ADR-RES ovarian
# [32] = system: OVCAR-3 ovarian
# [33] = system: OVCAR-4 ovarian
# [34] = system: OVCAR-5 ovarian
# [35] = system: OVCAR-8 ovarian
# [36] = system: P388 leukemia
# [37] = system: P388/ADR leukemia
# [38] = system: RPMI-8226 leukemia
# [39] = system: RXF 393 renal
# [40] = system: SF-268 CNS
# [41] = system: SF-295 CNS
# [42] = system: SF-539 CNS
# [43] = system: SK-MEL-2 melanoma
# [44] = system: SK-MEL-28 melanoma
# [45] = system: SK-MEL-5 melanoma
# [46] = system: SK-OV-3 ovarian
# [47] = system: SN12C renal
# [48] = system: SN12K1 renal
# [49] = system: SNB-19 CNS
# [50] = system: SNB-75 CNS
# [51] = system: SNB-78 CNS
# [52] = system: SW-620 colon
# [53] = system: U251 CNS
# [54] = system: UACC-257 melanoma
# [55] = system: UACC-62 melanoma
# [56] = system: UO-31 renal
# [57] = system: XF 498 CNS
# [58] = system: 786-0 renal
# [59] = system: ACHN renal
# [60] = system: LXFL 529 NSCLC
# [61] = system: SR leukemia
# [62] = system: TK-10 renal
smiles,measurement,setting,value
CC1=NCCc2cc3[nH]c4ccccc4c3cc21,TGI,[1],46.1 µM
same,TGI,[2],103 µM
same,TGI,[3],57.6 µM
same,TGI,[4],36.9 µM
same,TGI,[5],24.5 µM
same,TGI,[6],73.1 µM
same,TGI,[7],23.4 µM
same,TGI,[8],50.6 µM
same,TGI,[9],95.8 µM
same,TGI,[10],53.8 µM
same,TGI,[11],45.5 µM
same,TGI,[12],78.4 µM
same,TGI,[13],37.6 µM
same,TGI,[14],50 µM
same,TGI,[15],111 µM
same,TGI,[16],5.45 µM
same,TGI,[17],48.7 µM
same,TGI,[18],> 85.3 µM
same,TGI,[19],22.9 µM
same,TGI,[20],78.8 µM
same,TGI,[21],45.7 µM
same,TGI,[22],37.7 µM
same,TGI,[23],43.6 µM
same,TGI,[24],22.3 µM
same,TGI,[25],69.7 µM
same,TGI,[26],34.3 µM
same,TGI,[27],37.9 µM
same,TGI,[28],83.8 µM
same,TGI,[29],37.1 µM
same,TGI,[30],84.9 µM
same,TGI,[31],83.8 µM
same,TGI,[32],114 µM
same,TGI,[33],110 µM
same,TGI,[34],56.6 µM
same,TGI,[35],> 88.5 µM
same,TGI,[36],21.9 µM
same,TGI,[37],34.2 µM
same,TGI,[38],40.3 µM
same,TGI,[39],23.4 µM
same,TGI,[40],77.7 µM
same,TGI,[41],46.8 µM
same,TGI,[42],32 µM
same,TGI,[43],29.3 µM
same,TGI,[44],24.6 µM
same,TGI,[45],28.1 µM
same,TGI,[46],62.6 µM
same,TGI,[47],62.9 µM
same,TGI,[48],44.6 µM
same,TGI,[49],116 µM
same,TGI,[50],70 µM
same,TGI,[51],86.9 µM
same,TGI,[52],52.5 µM
same,TGI,[53],79 µM
same,TGI,[54],24.6 µM
same,TGI,[55],39.8 µM
same,TGI,[56],54.9 µM
same,TGI,[57],30.5 µM
COc1cccc2c1C(=O)c1c(O)c3c(c(O)c1C2=O)C[C@@](O)(C(C)O)C[C@@H]3OC1CC(N)C(O)C(C)O1 (some centres undefined),TGI,[58],4.11 µM
same,GI50,[1],0.776 µM
same,TGI,[1],8.09 µM and 4.62 µM
same,GI50,[2],1.11 µM
same,TGI,[2],6.02 µM and 29 µM
same,TGI,[59],8.18 µM
same,TGI,[3],3.16 µM and 3.53 µM
same,GI50,[4],0.254 µM
same,TGI,[4],1.33 µM
same,GI50,[5],0.894 µM
same,TGI,[5],4.95 µM and 10.5 µM
same,GI50,[6],6.11 µM
same,TGI,[6],> 100 µM
same,GI50,[7],0.255 µM
same,TGI,[7],1.48 µM and 1.14 µM
same,TGI,[8],7.24 µM and 6.65 µM
same,GI50,[9],1.73 µM
same,TGI,[9],4.91 µM and 9.53 µM
same,GI50,[10],2.26 µM
same,TGI,[10],5.26 µM and 7.66 µM
same,GI50,[11],1.38 µM
same,TGI,[11],4.17 µM and 17.8 µM
same,GI50,[12],12.1 µM
same,TGI,[12],> 100 µM
same,TGI,[13],1.13 µM and 1.29 µM
same,GI50,[14],4.96 µM and 1.13 µM
same,TGI,[14],9.5 µM and 7.49 µM
same,TGI,[15],4.3 µM and 4.42 µM
same,GI50,[16],0.231 µM
same,TGI,[16],3.37 µM and 2.11 µM
same,GI50,[17],2.78 µM
same,TGI,[17],36.6 µM
same,TGI,[18],9.22 µM and 18.4 µM
same,GI50,[19],2.21 µM
same,TGI,[19],8.19 µM and 26.5 µM
same,GI50,[20],2.75 µM
same,TGI,[20],9.34 µM and 14.3 µM
same,GI50,[21],4.52 µM
same,TGI,[21],42.9 µM
same,GI50,[22],1.29 µM
same,TGI,[22],4.13 µM and 3.11 µM
same,TGI,[60],7.62 µM
same,TGI,[23],3.32 µM and 4.06 µM
same,GI50,[24],0.392 µM
same,TGI,[24],1.72 µM and 1.93 µM
same,TGI,[25],42.5 µM
same,GI50,[26],0.0811 µM
same,GI50,[27],0.808 µM
same,TGI,[27],2.39 µM and 3.11 µM
same,GI50,[28],1.27 µM
same,TGI,[28],2.44 µM and 4.93 µM
same,TGI,[29],2.29 µM and 6.95 µM
same,GI50,[30],0.228 µM
same,TGI,[30],2.34 µM and 1.82 µM
same,TGI,[31],> 100 µM
same,TGI,[32],7.29 µM and 8.79 µM
same,GI50,[33],13.4 µM
same,TGI,[33],35.2 µM
same,GI50,[34],3.69 µM
same,TGI,[34],9.41 µM and 19.7 µM
same,GI50,[35],2.39 µM
same,TGI,[35],5.43 µM and > 52.5 µM
same,TGI,[36],1.69 µM
same,TGI,[37],> 100 µM
same,GI50,[38],0.289 µM and 0.502 µM
same,TGI,[38],2.53 µM and 13 µM
same,TGI,[39],5.13 µM and 6.06 µM
same,TGI,[40],5.52 µM and 6.43 µM
same,TGI,[41],6.29 µM and 7.17 µM
same,GI50,[42],0.665 µM
same,TGI,[42],4.77 µM and 3.63 µM
same,GI50,[43],1.59 µM
same,TGI,[43],3.5 µM and 3.45 µM
same,GI50,[44],1.93 µM
same,TGI,[44],4.05 µM and 7.36 µM
same,TGI,[45],2.49 µM and 2.53 µM
same,TGI,[46],8.2 µM and 18.6 µM
same,GI50,[47],1.49 µM
same,TGI,[47],6.58 µM and 7.62 µM
same,TGI,[48],2.4 µM
same,GI50,[49],0.392 µM
same,TGI,[49],7.81 µM and 5.57 µM
same,GI50,[50],1.71 µM and 1.05 µM
same,TGI,[50],6.25 µM and 4.31 µM
same,TGI,[51],7.32 µM and 8.53 µM
same,TGI,[61],0.659 µM
same,GI50,[52],0.881 µM
same,TGI,[52],8.28 µM and 21.4 µM
same,TGI,[62],8.11 µM
same,GI50,[53],0.705 µM
same,TGI,[53],7.87 µM and 3.44 µM
same,GI50,[54],2.41 µM
same,TGI,[54],4.2 µM and 9.17 µM
same,TGI,[55],3.01 µM and 3.29 µM
same,TGI,[56],97.8 µM
same,GI50,[57],0.221 µM
same,TGI,[57],2.87 µM and 1.86 µM
